Where “and” joins values, the source holds several entries; their conditions need not be identical. Equal entries are not always repeated.
Test: Plasma pharmacokinetics of CX-5461 (HPLC-MS/MS, non-compartmental)
Type: in vivo, human
Parameters: Day 1 CX-5461 plasma concentration: unit not given here
Settings: for Day 1 Cmax / Day 8 or 15 Cmax / Day 1 AUC / Day 8 or 15 AUC: one patient per datapoint; for Day 1 Cmax / Day 8 or 15 Cmax: in ng/mL; for Day 1 AUC / Day 8 or 15 AUC: in ng·h/mL (unit assumed)
Protocol: PK was assessed on all patients in the escalation phase. Venous blood samples were collected on treatment days 1, 8, and 15 (where applicable), and plasma CX-5461 was analyzed with HPLC-MS/MS (schedule details in Supplementary Table 3). PK parameters were calculated with non-compartmental methods. […] The protocol was amended to allow submission of a ctDNA sample and in a further amendment, a mandatory skin biopsy (pre-treatment and cycle 1 day 15) to study phototoxic effects. Fresh tumor biopsies were optional.
Supplementary Table 3. Schedule for collection of CX5461 pharmacokinetics
During infusion at 30 minutes
Immediately post infusion then:
C1D1 30 minutes post infusion
C1D2 24 hours post infusion
C1D3 48 hours post infusion
C1D4 72 hours post infusion
Immediately post infusion then
C1D15 30 minutes post infusion
C1D16 24 hours post infusion
In addition to the specific time points listed above, additional samples were to be collected from […]

Compound: Cc1cnc(CNC(=O)c2c(=O)c3ccc(N4CCCN(C)CC4)nc3n3c2sc2ccccc23)cn1 [CX-5461]
- Day 1 CX-5461 plasma concentration (50 mg/m2, Time 0, individual patients): 623
- Day 1 CX-5461 plasma concentration (50 mg/m2, Time 24, individual patients): 40.3 and 34
- Day 1 CX-5461 plasma concentration (50 mg/m2, Time 48, individual patients): 40 and 22.9
- Day 1 CX-5461 plasma concentration (50 mg/m2, Time 72, individual patients): 16.6 and 12.9
- Day 1 CX-5461 plasma concentration (100 mg/m2, Time 24, individual patients): 53.2 and 76.4 and 34.5 and 70.1
- Day 1 CX-5461 plasma concentration (100 mg/m2, Time 48, individual patients): 49 and 52 and 48
- Day 1 CX-5461 plasma concentration (100 mg/m2, Time 72, individual patients): 28 and 33.5 and 33.8
- Day 1 CX-5461 plasma concentration (150 mg/m2, Time 0, individual patients): 415 and 821
- Day 1 CX-5461 plasma concentration (150 mg/m2, Time 24, individual patients): 176 and 102 and 165 and 350
- Day 1 CX-5461 plasma concentration (150 mg/m2, Time 48, individual patients): 135 and 49 and 101 and 265
- Day 1 CX-5461 plasma concentration (150 mg/m2, Time 72, individual patients): 90.2 and 31.2 and 92.6 and 180
- Day 1 CX-5461 plasma concentration (200 mg/m2, Time 0, individual patients): 218 and 3210 and 1850 and 745
- Day 1 CX-5461 plasma concentration (200 mg/m2, Time 24, individual patients): 102 and 78.2 and 124
- Day 1 CX-5461 plasma concentration (200 mg/m2, Time 48, individual patients): 55 and 145 and 69.8 and 79.1
- Day 1 CX-5461 plasma concentration (200 mg/m2, Time 72, individual patients): 52.5 and 43.9 and 51.7
- Day 1 CX-5461 plasma concentration (250 mg/m2, Time 24, individual patients): 125 and 233
- Day 1 CX-5461 plasma concentration (250 mg/m2, Time 48, individual patients): 101 and 169
- Day 1 CX-5461 plasma concentration (250 mg/m2, Time 72, individual patients): 68 and 111
- Day 1 CX-5461 plasma concentration (325 mg/m2, Time 24, individual patients): 160 and 193
- Day 1 CX-5461 plasma concentration (325 mg/m2, Time 48, individual patients): 132 and 97
- Day 1 CX-5461 plasma concentration (325 mg/m2, Time 72, individual patients): 121 and 69.4
- Day 1 CX-5461 plasma concentration (475 mg/m2, Time 24, individual patients): 222 and 204
- Day 1 CX-5461 plasma concentration (475 mg/m2, Time 48, individual patients): 199 and 146
- Day 1 CX-5461 plasma concentration (475 mg/m2, Time 72, individual patients): 203 and 132
- Day 1 CX-5461 plasma concentration (650 mg/m2, Time 24, individual patients): 255 and 361 and 196 and 161 and 173 and 233
- Day 1 CX-5461 plasma concentration (650 mg/m2, Time 48, individual patients): 234 and 439 and 165 and 107 and 154
- Day 1 CX-5461 plasma concentration (650 mg/m2, Time 72, individual patients): 322 and 261 and 170 and 87.5 and 137 and 154
- Day 1 CX-5461 plasma concentration (B: 325 mg/m2, Time 24, individual patients): 254 and 120 and 133 and 175
- Day 1 CX-5461 plasma concentration (B: 325 mg/m2, Time 48, individual patients): 156 and 435 and 136
- Day 1 CX-5461 plasma concentration (B: 325 mg/m2, Time 72, individual patients): 93.9 and 199 and 103
- Day 1 CX-5461 plasma concentration (B: 475 mg/m2, Time 24, individual patients): 401 and 324 and 275 and 184
- Day 1 CX-5461 plasma concentration (B: 475 mg/m2, Time 48, individual patients): 288 and 213 and 252
- Day 1 CX-5461 plasma concentration (B: 475 mg/m2, Time 72, individual patients): 187 and 199 and 113
- Day 1 Cmax (Dose level 50 (mg/m2)): 623 and 1070 and 830 and 388
- Day 8 or 15 Cmax (Dose level 50 (mg/m2)): 616 and 1040 and 271
- Day 1 AUC (Dose level 50 (mg/m2)): 4080 and 3310
- Day 8 or 15 AUC (Dose level 50 (mg/m2)): 6520 and 1970 and 4580
- Day 1 Cmax (Dose level 100 (mg/m2)): 1580 and 662 and 799 and 1330
- Day 8 or 15 Cmax (Dose level 100 (mg/m2)): 1030 and 243
- Day 1 AUC (Dose level 100 (mg/m2)): 4870 and 3830 and 5290
- Day 8 or 15 AUC (Dose level 100 (mg/m2)): 7780 and 8830 and 2350
- Day 1 Cmax (Dose level 150 (mg/m2)): 2370 and 1080 and 1010
- Day 8 or 15 Cmax (Dose level 150 (mg/m2)): 1970 and 1090 and 697
- Day 1 AUC (Dose level 150 (mg/m2)): 12000 and 19500 and 11500 and 7650
- Day 8 or 15 AUC (Dose level 150 (mg/m2)): 18700 and 23900 and 12600
- Day 1 Cmax (Dose level 200 (mg/m2)): 265 and 3210 and 805
- Day 8 or 15 Cmax (Dose level 200 (mg/m2)): 1560 and 170 and 2180 and 795
- Day 1 AUC (Dose level 200 (mg/m2)): 5690 and 22300 and 12900 and 8410
- Day 8 or 15 AUC (Dose level 200 (mg/m2)): 9650 and 2530 and 25500 and 14100
- Day 1 Cmax (Dose level 250 (mg/m2)): 867 and 2350 and 1010
- Day 8 or 15 Cmax (Dose level 250 (mg/m2)): 1290 and 368 and 654
- Day 1 AUC (Dose level 250 (mg/m2)): 16300 and 16100
- Day 8 or 15 AUC (Dose level 250 (mg/m2)): 21800 and 18700
- Day 1 Cmax (Dose level 325 (mg/m2)): 938 and 960
- Day 8 or 15 Cmax (Dose level 325 (mg/m2)): 482 and 1190
- Day 1 AUC (Dose level 325 (mg/m2)): 12800 and 11200
- Day 8 or 15 AUC (Dose level 325 (mg/m2)): 15200
- Day 1 Cmax (Dose level 475 (mg/m2)): 1460 and 2510
- Day 8 or 15 Cmax (Dose level 475 (mg/m2)): 1500 and 1940
- Day 1 AUC (Dose level 475 (mg/m2)): 17900 and 17100
- Day 8 or 15 AUC (Dose level 475 (mg/m2)): 7410 and 31300 and 32900
- Day 1 Cmax (Dose level 650 (mg/m2)): 4290 and 1840 and 2280 and 3810 and 3180
- Day 8 or 15 Cmax (Dose level 650 (mg/m2)): 6050 and 2790 and 2540 and 5480 and 3990
- Day 1 AUC (Dose level 650 (mg/m2)): 29600 and 16700 and 21400
- Day 8 or 15 AUC (Dose level 650 (mg/m2)): 48200 and 23200 and 59300 and 44400 and 13900
- Day 1 Cmax (Dose level B: 325 (mg/m2)): 1030 and 1200 and 1520
- Day 8 or 15 Cmax (Dose level B: 325 (mg/m2)): 3590 and 1510 and 1240
- Day 1 AUC (Dose level B: 325 (mg/m2)): 19700 and 20400 and 21500
- Day 8 or 15 AUC (Dose level B: 325 (mg/m2)): 48100 and 7080 and 11700 and 7620
- Day 1 Cmax (Dose level B: 475 (mg/m2)): 2510 and 2620 and 1660 and 982 and 953
- Day 8 or 15 Cmax (Dose level B: 475 (mg/m2)): 1370 and 2630 and 6800 and 1020
- Day 1 AUC (Dose level B: 475 (mg/m2)): 43600 and 26400 and 23500 and 32100
- Day 8 or 15 AUC (Dose level B: 475 (mg/m2)): 18300 and 14200 and 52600 and 11900 and 7800
- concentration at 0.5 h (human, plasma, intravenous, 50 mg/m2, 50 mg/m2, Time 0.5, individual patients, read-out: Day 1 CX-5461 plasma concentration): 0.155 µg/mL
- concentration at 1 h (human, plasma, intravenous, 50 mg/m2, 50 mg/m2, Time 1, individual patients, read-out: Day 1 CX-5461 plasma concentration): 0.104 µg/mL
- concentration at 2 h (human, plasma, intravenous, 50 mg/m2, 50 mg/m2, Time 2, individual patients, read-out: Day 1 CX-5461 plasma concentration): 0.0965 µg/mL
- concentration at 4 h (human, plasma, intravenous, 50 mg/m2, 50 mg/m2, Time 4, individual patients, read-out: Day 1 CX-5461 plasma concentration): 0.0749 µg/mL
- concentration at 6 h (human, plasma, intravenous, 50 mg/m2, 50 mg/m2, Time 6, individual patients, read-out: Day 1 CX-5461 plasma concentration): 0.0616 µg/mL
- concentration at 24 h (human, plasma, intravenous, 50 mg/m2, 50 mg/m2, Time 24, individual patients, read-out: Day 1 CX-5461 plasma concentration): 0.04 µg/mL

— PMC9232501, “Results of the phase I CCTG IND.231 trial of CX-5461 in patients with advanced solid tumors enriched for DNA-repair deficiencies” (Nature Communications, 2022)
